These are literature values, as cited in patent US9400249B2, “Detection of biopolymer interactions, cancer cells, and pathogens using split-supercharged GFP” (Colorado State University Research Foundation, priority 2012, dated 2016).

What is called Kd is the equilibrium constant for the complex coming apart.

In one data set the target is Cholangiocarcinoma. The settings on record: Targeted cell type: Cholangiocarcinoma; read-out: Approximate affinity (Kd in nM).
Data set [1] has as its target Breast cancer, Neuroblastoma. Particulars: Targeted cell type: Breast cancer, read-out: Approximate affinity (Kd in nM).
The next data set addresses Osteosarcoma. Particulars: Targeted cell type: Osteosarcoma; read-out: Approximate affinity (Kd in nM).
The target of another data set is Head and neck cancer. The settings on record: Targeted cell type: Head and neck cancer; read-out: Approximate affinity (Kd in nM).
Another data set addresses Hepatocellular carcinoma. Particulars: Targeted cell type: Hepatocellular carcinoma; read-out: Approximate affinity (Kd in nM).
Data set [2] concerns PC-3 prostate cancer cells. The settings on record: previously reported.

As for “TPVLETPKLLLW [cell targeting peptide, targeted cell type cholangiocarcinoma]”, the dissociation constant (Kd) at Cholangiocarcinoma was about 500 nM.

“VPWMEPAYQRFL [cell targeting peptide, targeted cell type breast cancer, neuroblastoma]”: the Kd in data set [1] is 50000 to 80000 nM.

As to “ASGALSPSRLDT [cell targeting peptide, targeted cell type osteosarcoma]”, at Osteosarcoma, the Kd was about 2000 nM.

As for “TSPLNIHNGQKL [cell targeting peptide, targeted cell type head and neck cancer]”, the dissociation constant Kd at Head and neck cancer was about 1000 nM.

In the case of “AGKGTPSLETTP [cell targeting peptide, targeted cell type hepatocellular carcinoma]”, the equilibrium dissociation constant (Kd) at Hepatocellular carcinoma is about 50 nM.

Take FRPNRAQDYNTN: in the data set on Prostate cancer (PC-3 prostate cancer cells, previously reported), the “binding to PC-3 prostate cancer cells” value is “potently binds”. The dissociation constant Kd on Prostate cancer (Targeted cell type: Prostate cancer, read-out: Approximate affinity (Kd in nM)) is about 180 nM. The “penetration of PC-3 prostate cancer cells” value in data set [2] is “does not appreciably penetrate”.
